From PubChem BioAssay (NCI) come the findings set out here.

Among the test systems are HCT-116 colon; NCI-H460 lung; IGROV1 ovarian; NCI-H23 lung; SK-OV-3 ovarian; DU-145 prostate; SK-MEL-28 melanoma; NCI/ADR-RES ovarian.
Common to all, as to assay: inhibition of tumour cell growth, NCI panel, 48 h

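Where inhibition never reached the appropriate level, the endpoint shown equals the highest concentration tested. Otherwise, values were interpolated linearly from a five-concentration, 48-hour dose response in 96-well plates. At the GI50, growth is halved. At the TGI there is no net growth.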

On to `O=C1c2ccccc2-c2c1c1ccccc1c(=O)n2CCNCCCNCCn1c2c(c3ccccc3c1=O)C(=O)c1ccccc1-2`, for which the GI50 with HCT-116 colon is under 0.005 µM; with NCI-H460 lung it was under 0.005 µM; with IGROV1 ovarian it was 1.19 µM; in the experiment with NCI-H23 lung, 0.249 µM; with SK-OV-3 ovarian, 1.21 µM; in the experiment with DU-145 prostate, 0.0736 µM. Moreover, the GI50 in the experiment with SK-MEL-28 melanoma was 0.0667 µM. Moreover, the TGI with HCT-116 colon was 0.262 µM; in the experiment with NCI-H460 lung, over 50 µM; in the experiment on IGROV1 ovarian, over 50 µM; in the experiment on NCI-H23 lung, 1.13 µM; in the experiment with SK-OV-3 ovarian, 4.83 µM; with DU-145 prostate, 0.739 µM. In addition, in the experiment on SK-MEL-28 melanoma, the TGI is over 50 µM.

For `Cc1ccc2/c(=C/c3ccc(N(C)C)cc3)c3cc(-c4ccccc4)[n+](C)n3c2c1`, the GI50 in the experiment on HCT-116 colon is 0.0406 µM; with NCI-H460 lung it was 0.025 µM; with IGROV1 ovarian, 0.501 µM; with NCI-H23 lung, 0.0836 µM; in the experiment with NCI/ADR-RES ovarian, 6.41 µM; with DU-145 prostate, 0.0473 µM. For the same molecule, the GI50 in the experiment on SK-MEL-28 melanoma is 0.146 µM. In addition, the TGI is over 100 µM in the experiment on HCT-116 colon; 1.38 µM in the experiment with NCI-H460 lung; 1.9 µM in the experiment on NCI-H23 lung; over 100 µM in the experiment on NCI/ADR-RES ovarian; 4.37 µM with DU-145 prostate; 3.7 µM with SK-MEL-28 melanoma.

Turning to `NC(N)=N/N=C/c1c(-c2ccccn2)nc2sc(Cl)cn12`, the GI50 was 8.36 µM in the experiment on HCT-116 colon; 10.2 µM with NCI-H460 lung; 6.21 µM in the experiment with IGROV1 ovarian; 11.5 µM in the experiment with NCI-H23 lung; 9.1 µM in the experiment with SK-OV-3 ovarian; 13.6 µM in the experiment with NCI/ADR-RES ovarian. The GI50 in the experiment with DU-145 prostate is 7.68 µM. Further, the TGI in the experiment with HCT-116 colon is 17.3 µM; in the experiment with NCI-H460 lung it was 50 µM; in the experiment on IGROV1 ovarian, 13.7 µM; with NCI-H23 lung, 19.1 µM; in the experiment with SK-OV-3 ovarian, 17.9 µM; in the experiment on NCI/ADR-RES ovarian, 35.6 µM. For the same molecule, in the experiment with DU-145 prostate, the TGI was found to be 14.4 µM.

`Cn1c(N)nc2c(nc(OCc3ccccc3)n2C2OC(CO)C(O)C2O)c1=O` (stereo not drawn): the TGI in the experiment with HCT-116 colon, with NCI-H460 lung, with IGROV1 ovarian, in the experiment on SK-OV-3 ovarian, in the experiment on DU-145 prostate and in the experiment on SK-MEL-28 melanoma was over 100 µM throughout.

With `CN(C)CCNC(=O)Nc1c(C#N)[n+]([O-])c2cc(Cl)c(Cl)cc2[n+]1[O-]`, the GI50 in the experiment on HCT-116 colon was 13.4 µM; in the experiment on NCI-H460 lung it was 21.1 µM; in the experiment with NCI-H23 lung, 27 µM; in the experiment with SK-OV-3 ovarian, 21.1 µM; in the experiment on NCI/ADR-RES ovarian, over 100 µM; with DU-145 prostate, 25.4 µM. Moreover, the GI50 in the experiment with SK-MEL-28 melanoma was 34.3 µM. Besides, the TGI is over 100 µM in the experiment on HCT-116 colon; over 100 µM in the experiment with NCI-H460 lung; over 100 µM with NCI-H23 lung; 97.7 µM in the experiment with SK-OV-3 ovarian; over 100 µM in the experiment on NCI/ADR-RES ovarian; over 100 µM in the experiment with DU-145 prostate. Besides, the TGI in the experiment with SK-MEL-28 melanoma is over 100 µM.

In the case of `C=CC(=O)N1CCN(c2ncnc3c(F)c(-c4c(O)cccc4F)c(Cl)cc23)CC1`, the GI50 in the experiment with HCT-116 colon was 9.19 µM; with NCI-H460 lung, 14.8 µM; in the experiment on IGROV1 ovarian it was 11.6 µM; with NCI-H23 lung, 0.43 µM; with NCI/ADR-RES ovarian it was 22.1 µM; with DU-145 prostate, 10.6 µM. Besides, the GI50 in the experiment with SK-MEL-28 melanoma was 13.3 µM. The TGI in the experiment with HCT-116 colon is 23.1 µM; in the experiment with NCI-H460 lung, 33.5 µM; in the experiment with IGROV1 ovarian, 24.8 µM; in the experiment with NCI-H23 lung it was 15.9 µM; in the experiment on NCI/ADR-RES ovarian, 76.1 µM; in the experiment with DU-145 prostate, 23.6 µM. Moreover, in the experiment on SK-MEL-28 melanoma, the TGI came to 26 µM.

Regarding `COC(=O)NC/C=C\c1nc(CC/C=C\C(=O)OC2CC3CC(=O)O[C@@H](/C=C/CC(C)C)C[C@@H]4CCC(C)C(C[C@@H](OC)CC(C2)O3)O4)co1` (stereo partly drawn), the GI50 is under 0.01 µM with HCT-116 colon; under 0.01 µM in the experiment on NCI-H460 lung; under 0.01 µM in the experiment on NCI-H23 lung; over 100 µM in the experiment with SK-OV-3 ovarian; 38.3 µM in the experiment with NCI/ADR-RES ovarian; 4.59 µM with DU-145 prostate. Further, the GI50 in the experiment with SK-MEL-28 melanoma is 26.5 µM. Moreover, the TGI is 57.5 µM in the experiment with HCT-116 colon; over 100 µM with NCI-H460 lung; over 100 µM with NCI-H23 lung; over 100 µM in the experiment with SK-OV-3 ovarian; over 100 µM in the experiment on NCI/ADR-RES ovarian; over 100 µM with DU-145 prostate. This molecule also returned a TGI in the experiment with SK-MEL-28 melanoma of over 100 µM.

As for `C=C1CC(COc2cc(Cl)nc(N)n2)C1`, the GI50 in the experiment on HCT-116 colon was 35.1 µM; with NCI-H460 lung it was 55.6 µM; in the experiment on IGROV1 ovarian it was 84.1 µM; with NCI-H23 lung, 38.6 µM; in the experiment with SK-OV-3 ovarian, 69.7 µM; with NCI/ADR-RES ovarian, 33.4 µM. For the same molecule, the GI50 in the experiment on DU-145 prostate is 47.7 µM.

As for `CCCS(=O)(=O)c1nc(NC2CC2)cc(-c2ccc3c(ccn3C3CC(C)(C)NC(C)(C)C3)c2)n1`, the GI50 in the experiment on HCT-116 colon was 1.68 µM; in the experiment on NCI-H460 lung it was 1.8 µM; in the experiment with IGROV1 ovarian it was 1.97 µM; in the experiment on SK-OV-3 ovarian, 1.86 µM; in the experiment on NCI/ADR-RES ovarian, 2 µM; in the experiment on DU-145 prostate it was 1.71 µM. In addition, the TGI in the experiment on HCT-116 colon was 3.22 µM; in the experiment on NCI-H460 lung it was 3.55 µM; in the experiment on IGROV1 ovarian, 3.81 µM; in the experiment with SK-OV-3 ovarian, 3.46 µM; in the experiment on NCI/ADR-RES ovarian it was 4.46 µM; with DU-145 prostate, 3.19 µM.
